In publication PMC4764201, “High Throughput Screen for Escherichia coli Twin Arginine Translocation (Tat) Inhibitors” (PLoS ONE, 2016):

Legend:
[1] = biological target: T1, E. coli Tat machinery (IMVs containing overproduced TatABC) (Escherichia coli, UniProt P69423+P69425+P69428); experiment: In vitro Tat transport assay of pre-SufI into IMVs, ATP as energy source; assay type: biochemical; settings: hit compound 100 μM
Description: (§1) To directly test for inhibition of Tat transport, a gel-based in vitro Tat transport assay was performed using pre-SufI, an authentic Tat precursor protein [7]. In short, this assay consists of incubating a Tat substrate and a Δψ-generating energy source with inverted membrane vesicles (IMVs) containing overproduced TatABC, digesting remaining external protein with a protease, and then analyzing via SDS-PAGE. This assay was run twice using NADH and ATP (if warranted) as energy sources to generate the necessary Δψ. NADH generates a Δψ using respiratory proteins (i.e., the NADH dehydrogenase and cytochrome bo3 ubiquinol oxidase complexes) and ATP generates a Δψ by reversal of ATP synthase. A true Tat inhibitor would survive both assays. In contrast, a respiration inhibitor is expected to reduce Tat transport when only one of the two energy sources is used (except for an ionophore).
(§2) Fig 8 Effect of Hits from the Local HTS on In Vitro Tat Transport. (A) Tat transport assays of pre-SufI using NADH to generate a Δψ. […] Samples were treated with the protease proteinase K, run on SDS-PAGE, and analyzed by in-gel fluorescence imaging. Assays were run in duplicate. Band intensity corresponds to the amount of protein transported into the IMV lumen. The following 7 compounds survived this screen: 1^JS, 51^JS, 55^JS, 111^JS, 181^JS, 202^JS, and 140^JS (boxed in red). (B) Tat transport assays of pre-SufI using ATP to generate a Δψ. All 7 compounds surviving the screen in (A) were tested using a Tat transport assay performed identically to those in (A) except that ATP (1 mM) was used in place of NADH. […]
(§3) Isolation of inverted membrane vesicles (IMVs), Western blot analyses and purification of pre-SufI-IAC were performed as described previously. […] The presence of a Δψ was determined by measuring oxonol VI fluorescence in presence of Tat^+ IMVs (A280 = 0.5), as described previously, except that the translocation buffer lacked BSA. Steady-state fluorescence spectra and fluorescence intensities of whole cells producing mCherry proteins were determined with an SLM-8100 spectrofluorometer.

[2] = biological target: T1, E. coli Tat machinery (IMVs containing overproduced TatABC); experiment: In vitro Tat transport assay of pre-SufI into IMVs, NADH as energy source; assay type: biochemical; settings: hit compound 100 μM
[3] = test system: E. coli Tat machinery (IMVs containing overproduced TatABC); experiment: as above; assay type: biochemical, Escherichia coli; settings: out of 22 independent assays by three different people
Description: as §1
Fig 8 Effect of Hits from the Local HTS on In Vitro Tat Transport. (A) Tat transport assays of pre-SufI using NADH to generate a Δψ. Inverted membrane vesicles (IMVs; A280 = 5.0), the fluorescent substrate pre-SufI-IAC^Atto565 (90 nM), and NADH (4 mM) were incubated at 37°C for 30 min with DMSO (control) or with hit compound (20 μM). Samples were treated with the protease proteinase K, run on SDS-PAGE, and analyzed by in-gel fluorescence imaging. Assays were run in duplicate. Band intensity corresponds to the amount of protein transported into the IMV lumen. The following 7 compounds survived this screen: 1^JS, 51^JS, 55^JS, 111^JS, 181^JS, 202^JS, and 140^JS (boxed in red). (B) Tat transport assays of pre-SufI using ATP to generate a Δψ. All 7 compounds surviving the screen in (A) were tested using a Tat transport assay performed identically to those in (A) except that ATP (1 mM) was used in place of NADH. Compound 55^JS was eliminated by this assay—the other 6 compounds survived (boxed in red). (C) Chemical structure of compound 55^JS, N-(4,7-Dioxo-4,7-dihydro-2,1,3-benzoxadiazol-5-yl)acetamide.
Isolation of inverted membrane vesicles (IMVs), Western blot analyses and purification of pre-SufI-IAC were performed as described previously. Western blots were performed using rabbit anti-mCherry antibodies (1:10,000 dilution) in the presence of 0.1% Triton X-100 and 0.1% Tween 20. The pre-SufI-IAC protein was labeled with Atto565 maleimide, and the resultant fluorescent protein, pre-SufI-IAC^Atto565, was used as a substrate for the in vitro Tat transport assays (A280 = 5.0), as described previously. The presence of a Δψ was determined by measuring oxonol VI fluorescence in presence of Tat^+ IMVs (A280 = 0.5), as described previously, except that the translocation buffer lacked BSA. Steady-state fluorescence spectra and fluorescence intensities of whole cells producing mCherry proteins were determined with an SLM-8100 spectrofluorometer.
Supplementary file pone.0149659.s003.tiff: S3 Fig IC50's for Hit Compound 181^JS. (A) The total cellular mCherry fluorescence (live cell assay; n = 1), (B) the in vitro NADH-dependent Tat transport efficiency of pre-SufI (n = 1), and (C) the maximum transmembrane electrical potential gradient (n = 1) were measured for a range of concentrations of compound 181^JS (S2E Fig). (D) SDS-PAGE gel showing in-gel fluorescence data used in (B). For (A), cells expressing spTorA-mCherry-SsrA were grown under Tat^++ conditions in a 384-well plate in the presence of 0, 0.08, 0.15, 0.3, 0.63, 1.25, 2.5, 5, 10, 20, or 40 μM compound 181^JS, as described for the HTS assay (see Methods). For (B) and (C), IMVs were incubated with the same concentrations of compound 181^JS prior to initiation of Tat transport and Δψ generation by the addition of NADH, as described previously. The red curves are best-fits using y = d + (100-d)/(1+(x/IC50)^b), where b is a slope factor and d is the high concentration asymptote. (TIFF) Click here for additional data file.

[4] = test system: E. coli Tat machinery (IMVs containing overproduced TatABC); experiment: In vitro Tat transport assay of pre-SufI into IMVs, ATP as energy source; assay type: biochemical, Escherichia coli; settings: hit compound 100 μM
Description: as §1, §2, §3

[5] = test system: E. coli Tat machinery (IMVs containing overproduced TatABC); experiment: In vitro Tat transport assay of pre-SufI into IMVs, NADH as energy source; assay type: biochemical, Escherichia coli; settings: hit compound 100 μM

T1 sequence (P69423 2-258): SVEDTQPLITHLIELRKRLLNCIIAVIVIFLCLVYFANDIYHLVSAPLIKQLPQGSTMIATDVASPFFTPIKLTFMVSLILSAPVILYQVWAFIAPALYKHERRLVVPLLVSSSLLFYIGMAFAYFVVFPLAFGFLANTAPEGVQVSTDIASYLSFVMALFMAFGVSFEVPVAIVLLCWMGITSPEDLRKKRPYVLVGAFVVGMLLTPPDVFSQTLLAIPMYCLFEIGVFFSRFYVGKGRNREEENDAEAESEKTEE
T1 sequence (P69425 whole entry): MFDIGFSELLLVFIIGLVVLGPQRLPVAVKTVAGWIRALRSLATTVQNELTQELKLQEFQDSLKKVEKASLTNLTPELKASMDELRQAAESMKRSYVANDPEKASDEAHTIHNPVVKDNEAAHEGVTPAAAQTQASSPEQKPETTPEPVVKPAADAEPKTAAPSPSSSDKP
T1 sequence (P69428 whole entry): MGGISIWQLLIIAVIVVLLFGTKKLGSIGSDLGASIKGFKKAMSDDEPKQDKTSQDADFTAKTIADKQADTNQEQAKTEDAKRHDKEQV

In the case of N#CC1c2ccccc2-n2nncc2CN1Cc1cc(Cl)cc(Cl)c1 (centres unmarked) [21^NIH, 5-[(3,5-dichlorophenyl)methyl]-4,6-dihydrotriazolo[1,5-a][1, 4]benzodiazepine-6-carbonitrile], the “outcome of ATP-dependent in vitro Tat transport screen (survival = visible inhibition of Tat transport)” value [1] was “survived” and the “outcome of NADH-dependent in vitro Tat transport screen (survival = visible inhibition of Tat transport)” value [2] was “survived”.

Oc1cc(Cl)ccc1Oc1ccc(Cl)cc1Cl [Compound 18^NIH, 5-Chloro-2-(2,4-dichlorophenoxy)phenol] was tested, and the “number of assays in which Tat transport was inhibited” value [3] was 12 times, the “outcome of ATP-dependent in vitro Tat transport screen (survival = visible inhibition of Tat transport)” value [4] was “survived” and the “outcome of NADH-dependent in vitro Tat transport screen (survival = visible inhibition of Tat transport)” value [5] was “survived”.
